Measurements reported in publication PMC10784468 (Nature Communications, 2024).
Positions of bridges follow the written chain, without caps; N, C: chain ends. No end group written: not given here. FeTCPP = ferriporphyrin at the N-terminus; CAA = cis-aconitic anhydride moiety

Columns and labels:
[1] = tested on: MCF-7/MDR xenograft tumors; test: In vivo antitumor evaluation in MCF-7/MDR xenografted model; conditions: for mean tumor volume at 20 days post injection / TGI rate: MCF-7/MDR xenograft, Gi-F-CAA 8 mg/kg, DOX and CPT 3 mg/kg; for mean tumor volume at 20 days post injection: six i.v. injections every 2 days, n = 6; for TGI rate: six i.v. injections, 20 days
Description: Female BALB/c nude mice (~8 weeks, 18 g) were subcutaneously inoculated with 5 × 10^6 MCF-7/MDR cells resuspended in Matrigel. […] Individual tumor volume and bodyweight of mouse after different treatment was collected at 2-days intervals for analysis. Mice were killed at 20 days post treatment unless endpoints were exceeded. Moreover, tumors from all groups were harvested under euthanasia and weighed for analysis at the end of treatment.

786-O xenograft tumors = test: In vivo antitumor evaluation in large tumor model (786-O); set-up: species or system BALB/c nude mice; conditions: six i.v. injections at 2-days intervals, Gi-F-CAA 8 mg/kg, Bevacizumab 5 mg/kg
GPX4mu = conditions: one-to-one binding; ref Biochemical and Biophysical Research Communications. 2017, 482, 195e201; cited from earlier work
Procedure: page 12: Figure 9. […] The manuscript was revised accordingly. […] More explanation on this may be helpful. For instance, why small molecule inhibitors of GPX4 were not used? I suppose small molecules may penetrate tumor better since they are smaller. Beside ... || page 14: calculation of apparent Kd was added in the method section. Specifically, nanoparticles provide large surface area with exposed GPX4 target to achieve multivalent binding, which could remarkably enhance the binding affinity. This concept has been proven by several papers (Adv. Mater. 2023,35, 2211332; Adv Mater, 2023, doi: 10.1002/adma.202303831). […] Biophys. Res.

GPX4 [2] = conditions: ref Biochemical and Biophysical Research Communications. 2017, 482, 195e201, cited from earlier work; for GPX4 inhibitory effect at 100 μM: even at 100 μM
Description: page 12: Figure 9. […] The manuscript was revised accordingly. […] More explanation on this may be helpful. For instance, why small molecule inhibitors of GPX4 were not used? I suppose small molecules may penetrate tumor better since they are smaller. Beside ...

GPX4 [3] = target: T1, GPX4 (Homo sapiens, UniProt P36969); test: Intracellular GPX4 activity detection; type: cell-based; set-up: endogenous in cells; host or cells: EJ bladder cancer cells
T1 sequence (P36969 1-197): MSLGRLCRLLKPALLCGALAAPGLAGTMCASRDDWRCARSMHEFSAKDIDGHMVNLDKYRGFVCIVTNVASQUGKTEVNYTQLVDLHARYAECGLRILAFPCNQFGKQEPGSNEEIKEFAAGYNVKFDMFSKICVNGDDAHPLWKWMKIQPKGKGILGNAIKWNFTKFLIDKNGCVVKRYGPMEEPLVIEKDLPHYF
Procedure: (§1) Initially, EJ cells (5 × 10^5) were cultured in 6-well plate with a CO2 incubator overnight at 37 °C. […] Next, EJ cells were collected and washed with PBS for 3 times. Afterwards, the cell lysates were collected by centrifugation at 5000 rpm for 10 min at 4 °C after ultrasonic lysis in an ice bath. Finally, the GPX4 activity were measured with a GPX Assay Kit based on the manufacturer’s instructions.

EJ cells [4] = test: Intracellular GSH content detection; type: cell-based
Procedure: as §1, with “8000 g” for “5000 rpm”, “lysed by freeze-thaw treatment.” for “ultrasonic lysis in an ice bath.”, “GSH contents” for “GPX4 activity”, “GSH” for “GPX”

ζ-potential in PBS = type: physicochemical; conditions: 40 μM in PBS, pH 7.4; mean of n = 3
Procedure: Supplementary Fig. 12. ζ-potential change of Gi-F-CAA (40 μM) in PBS (0.01 M, pH 7.4 or 6.5) (n=3
experimental repeats). Experiment was independently repeated three times with similar results. Values are
(1 picture or pasted object on this page, not shown here)
Supplementary Fig. 13. ζ-potential of NGi-F-CAA, Gi-F and Gi-F-SA (pH 7.4) (40 μM) in PBS (n=3

EJ cells [5] = test: Cytotoxicity assay (CCK-8) on EJ cells
Procedure: Initially, EJ cells were seeded into 96 well plates at a density of 5 × 10^3 per well and incubated in a CO2 incubator overnight at 37 °C. Subsequently, Gi-F (pH = 7.4), Gi-F-SA (pH = 7.4), NGi-F-CAA (pH = 7.4), NGi-F-CAA (pH = 6.5), Gi-F-CAA (pH = 7.4) and Gi-F-CAA (pH = 6.5) at different concentrations (1, 2, 4, 8, 16, 32, 64, 128 and 256 μM) was added to the cells and further incubated for 48 h. Finally, the cell viability rate was calculated by (Sample wells-Blank wells)/(Control wells-Blank wells) × 100%.

EJ cells [6] = test: Intracellular Fe2+ ions detection; type: cell-based
Procedure: Initially, EJ cells (5 × 10^5) were cultured in confocal dish with a CO2 incubator overnight at 37 °C. […] Afterwards, EJ cells were washed with PBS for 3 times and replaced with culture mediums.

EJ cells [7] = test: Intracellular LPO content (MDA kit); type: cell-based
Procedure: as §1, with “8000 g” for “5000 rpm”, “lysed by freeze-thaw treatment.” for “ultrasonic lysis in an ice bath.”, “LPO contents” for “GPX4 activity”, “measured by thiobarbituric acid (TBA) reaction” for “measured”, “Malondialdehyde (MDA)” for “GPX”

Gi-F nanoparticle = target: T2, Gi-F nanoparticle (synthetic construct, disulfide 9-17 (inferred); also: self-assembled nanoparticle); test: MST
T2 chain: FeTCPP-LKLKLKGACNWLPLYPCPV

Gi-F-CAA = target: T3, Gi-F-CAA (synthetic construct, disulfide 9-17 (inferred)); test: MST
T3 chain: FeTCPP-LKLKLK(CAA)GACNWLPLYPCPV

NGi-F-CAA = target: T4, NGi-F-CAA (synthetic construct, cysteine pairing not given here; also: cis-aconitic anhydride on Lys); test: MST
T4 chain: FeTCPP-LKLKLK(CAA)GACLNWPYLPCPV

CC[C@@]1(O)C(=O)OCc2c1cc1n(c2=O)Cc2cc3ccccc3nc2-1 [CPT]
mean tumor volume at 20 days post injection [1]: 1095 mm^3
TGI rate [1]: 39%
Tumor weight ([1]; mice 1): 0.95 g
Tumor weight ([1]; mice 2): 0.87 g
Tumor weight ([1]; mice 3): 1 g
Tumor weight ([1]; mice 4): 0.65 g
Tumor weight ([1]; mice 5): 0.9 g
Tumor weight ([1]; mice 6): 0.74 g

COc1cccc2c1C(=O)c1c(O)c3c(c(O)c1C2=O)C[C@@](O)(C(=O)CO)C[C@@H]3O[C@H]1C[C@H](N)[C@H](O)[C@H](C)O1 [DOX]
mean tumor volume at 20 days post injection [1]: 1082 mm^3
TGI rate [1]: 32%
Tumor weight ([1]; mice 1): 0.73 g
Tumor weight ([1]; mice 2): 1.18 g
Tumor weight ([1]; mice 4): 0.93 g
Tumor weight ([1]; mice 6): 0.69 g

Bevacizumab: clinical antitumor drug Avastin (Bevacizumab) [reference compound]
tumor volume course in large tumors (~500 mm^3) (786-O xenograft tumors): temporary retarded growth and got out of control thereafter

CRAWYQNYCALRR [GXpep-2]
Kd (GPX4mu): 0.61 µM
GPX4 inhibitory effect at 100 μM (GPX4 [2]): did not have an inhibitory effect

CRVDLQGWRRCRR [GXpep-1]
Kd (GPX4mu): 1.8 µM
GPX4 inhibitory effect at 100 μM (GPX4 [2]): did not have an inhibitory effect

FeTCPP-LKLKLK(CAA)GACLNWPYLPCPV (disulfide) [NGi-F-CAA]
Relative activity of GPX4 (GPX4 [3]; EJ cells, 8 h, pH 7.4, PBS group normalized as 1, #1): 0.95
Relative activity of GPX4 (GPX4 [3]; EJ cells, 8 h, pH 7.4, PBS group normalized as 1, #2): 0.9
Relative activity of GPX4 (GPX4 [3]; EJ cells, 8 h, pH 7.4, PBS group normalized as 1, #3): 1.02
Relative activity of GPX4 (GPX4 [3]; pH=7.4, replicate #1): 0.94
Relative activity of GPX4 (GPX4 [3]; pH=7.4, replicate #2): 0.94
Relative activity of GPX4 (GPX4 [3]; pH=7.4, replicate #3): 1
Relative GSH levels (EJ cells [4]; pH=7.4, replicate #1): 0.912
Relative GSH levels (EJ cells [4]; pH=7.4, replicate #2): 0.883
Relative GSH levels (EJ cells [4]; pH=7.4, replicate #3): 1.029
Zeta potential (mV) (ζ-potential in PBS): -26.8 mV
IC50 (EJ cells [5]; pH 6.5): 111 µM
IC50 (EJ cells [5]; pH 7.4): 155 µM
intracellular Fe^2+ (FerroOrange fluorescence), pH 7.4 (EJ cells [6]; EJ cells, pH 7.4, 8 h): no remarkable fluorescence
Concentrations of Fe2+ ions (EJ cells [6]; pH=7.4, replicate #1): 17.875 ng/104cells
Concentrations of Fe2+ ions (EJ cells [6]; pH=7.4, replicate #2): 15.309 ng/104cells
Concentrations of Fe2+ ions (EJ cells [6]; pH=7.4, replicate #3): 13.004 ng/104cells
Relative MDA levels (EJ cells [7]; pH=7.4, replicate #1): 0.76
Relative MDA levels (EJ cells [7]; pH=7.4, replicate #2): 1.04
Relative MDA levels (EJ cells [7]; pH=7.4, replicate #3): 1.44

GACNWLPLYPCPV (disulfide 3-11 (inferred)) [GXpep-3]
Kd (GPX4mu): 8.2 µM
IC50 (GPX4 [2]; read-out: IC50, GPX4 inhibitory activity): 10 µM

B1: GPX4 (protein)
chain: SLGRLCRLLKPALLCGALAAPGLAGTMCASRDDWRCARSMHEFSAKDIDGHMVNLDKYRGFVCIVTNVASQUGKTEVNYTQLVDLHARYAECGLRILAFPCNQFGKQEPGSNEEIKEFAAGYNVKFDMFSKICVNGDDAHPLWKWMKIQPKGKGILGNAIKWNFTKFLIDKNGCVVKRYGPMEEPLVIEKDLPHYF
Kd (Gi-F nanoparticle): ~0.0303 µM
Kd (Gi-F-CAA): ~1.68 µM
Kd (NGi-F-CAA): ~17.6 µM
